In the supplement of paper PMC8671470:

How the values were obtained:
Details in all cases: 72 h
BV-173 [1] = test system: BV-173
How it was run: (§1)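 Fifteen myeloid leukaemia cell lines were seeded in RPMI 1640 at densities titrated to the linear growth range and placed in 384-well plates with acoustically pre-printed compounds at five tenfold doses from 1 to 10,000 nM, in duplicate. After 72 h at 37 °C with 5% CO2, luminescent ATP viability was normalised to vehicle and to a positive control at 10 µM, and curves were fitted with a four-parameter log-logistic model. The IC50 was obtained from these fits.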

HEL [2] = test system: HEL
How it was run: as §1

HL-60 [3] = test system: HL-60
How it was run: as §1

K-562 [4] = test system: K-562
How it was run: as §1

KCL-22 [5] = test system: KCL-22
How it was run: as §1

KG-1 [6] = test system: KG-1
How it was run: as §1

KU-812 [7] = test system: KU-812
How it was run: as §1

LAMA-84 [8] = test system: LAMA-84
How it was run: as §1

ML-2 [9] = test system: ML-2
How it was run: as §1

MOLM-13 [10] = test system: MOLM-13
How it was run: as §1

MV4-11 [11] = test system: MV4-11
How it was run: as §1

Mono-Mac-6 [12] = test system: Mono-Mac-6
How it was run: as §1

NOMO-1 [13] = test system: NOMO-1
How it was run: as §1

SHI-1 [14] = test system: SHI-1
How it was run: as §1

THP-1 [15] = test system: THP-1
How it was run: as §1

BV-173 [16] = assay: cell viability (% survival relative to DMSO control, bortezomib = 0%); higher = less cytotoxic
How it was run: (§2)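 After 72 h at 37 °C with 5% CO2, cell viability in 384-well plates was measured by CellTiter-Glo luminescence. The plates held compounds pre-printed at 1, 10, 100, 1000 or 10000 nM in duplicate, and cells from 10 AML and 5 CML lines seeded at densities titrated to linear growth. Percent survival is the duplicate mean, normalised to vehicle as 100% and a 10 µM positive control as 0%.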

HEL [17] = assay: as above
How it was run: as §2

HL-60 [18] = assay: as above
How it was run: as §2

K-562 [19] = assay: as above
How it was run: as §2

KCL-22 [20] = assay: as above
How it was run: as §2

KG-1 [21] = assay: as above
How it was run: as §2

KU-812 [22] = assay: as above
How it was run: as §2

LAMA-84 [23] = assay: as above
How it was run: as §2

ML-2 [24] = assay: as above
How it was run: as §2

MOLM-13 [25] = assay: as above
How it was run: as §2

MV4-11 [26] = assay: as above
How it was run: as §2

Mono-Mac-6 [27] = assay: as above
How it was run: as §2

NOMO-1 [28] = assay: as above
How it was run: as §2

SHI-1 [29] = assay: as above
How it was run: as §2

THP-1 [30] = assay: as above
How it was run: as §2

CCCCCN(C)CCC(O)(P(=O)(O)O)P(=O)(O)O [Ibandronate]
Details	IC50 (cell viability) [µM]
BV-173 [1]	> 10
HEL [2]	> 10
HL-60 [3]	> 10
K-562 [4]	> 10
KCL-22 [5]	> 10
KG-1 [6]	> 10
KU-812 [7]	> 10
LAMA-84 [8]	> 10
ML-2 [9]	> 10
MOLM-13 [10]	> 10
MV4-11 [11]	> 10
Mono-Mac-6 [12]	> 10
NOMO-1 [13]	> 10
SHI-1 [14]	> 10
THP-1 [15]	> 10

cell viability [%]
Details	1 nM	10 nM	100 nM	1000 nM	10000 nM
BV-173 [16]	94.6	96	94.4	120	122
HEL [17]	107	105	109	95.5	114
HL-60 [18]	92.4	111	103	90.5	142
K-562 [19]	113	92	81.9	102	101
KCL-22 [20]	107	105	95.1	99.8	112
KG-1 [21]	103	108	96.5	115	111
KU-812 [22]	88.2	90.9	89.9	110	105
LAMA-84 [23]	104	98.3	100	106	103
ML-2 [24]	94	110	97.2	114	112
MOLM-13 [25]	84.4	110	111	100	117
MV4-11 [26]	95	90.5	104	86.6	116
Mono-Mac-6 [27]	93.1	98.3	90	103	115
NOMO-1 [28]	99.6	99.3	94.4	109	112
SHI-1 [29]	108	108	103	98	107
THP-1 [30]	94.7	102	103	113	115

Cc1cc(C(=O)NNCc2ccccc2)no1 [Isocarboxazid]
Details	IC50 (cell viability) [µM]
BV-173 [1]	> 10
HEL [2]	> 10
HL-60 [3]	> 10
K-562 [4]	> 10
KCL-22 [5]	> 10
KG-1 [6]	> 10
KU-812 [7]	> 10
LAMA-84 [8]	> 10
ML-2 [9]	> 10
MOLM-13 [10]	> 10
MV4-11 [11]	> 10
Mono-Mac-6 [12]	> 10
NOMO-1 [13]	> 10
SHI-1 [14]	> 10
THP-1 [15]	> 10

cell viability [%]
Details	1 nM	10 nM	100 nM	1000 nM	10000 nM
BV-173 [16]	99.1	101	100	117	80.7
HEL [17]	112	87.8	111	92.6	103
HL-60 [18]	107	90.1	106	122	102
K-562 [19]	116	91.5	88.5	99.6	107
KCL-22 [20]	105	91.3	94.3	98.3	65.6
KG-1 [21]	96.5	109	98.5	108	91.1
KU-812 [22]	96.2	99.6	93.8	93.9	100
LAMA-84 [23]	98.9	97.9	99.7	95.5	95.8
ML-2 [24]	95	101	101	90.4	85.4
MOLM-13 [25]	104	96.3	103	106	96.6
MV4-11 [26]	107	95	97.5	81.4	80.4
Mono-Mac-6 [27]	94.1	102	104	107	80.8
NOMO-1 [28]	105	103	109	112	92
SHI-1 [29]	101	99.9	98.4	99.1	95.2
THP-1 [30]	97.8	102	110	97.4	86.7

CCn1c(=Cc2cccc[n+]2CC)sc(=C2Sc3ccccc3N2C)c1=O [MKT 077]
Details	IC50 (cell viability) [µM]
BV-173 [1]	> 10
HEL [2]	> 10
HL-60 [3]	4.45
K-562 [4]	3.59
KCL-22 [5]	> 10
KG-1 [6]	> 10
KU-812 [7]	> 10
LAMA-84 [8]	> 10
ML-2 [9]	> 10
MOLM-13 [10]	3.76
MV4-11 [11]	3.37
Mono-Mac-6 [12]	> 10
NOMO-1 [13]	> 10
SHI-1 [14]	3.28
THP-1 [15]	> 10

cell viability [%]
Details	1 nM	10 nM	100 nM	1000 nM	10000 nM
BV-173 [16]	107	108	102	95.2	83.4
HEL [17]	117	87	95.7	105	125
HL-60 [18]	101	84.5	101	136	2.97
K-562 [19]	109	88.1	103	108	1.35
KCL-22 [20]	106	98.5	90	103	107
KG-1 [21]	99	103	138	102	79.3
KU-812 [22]	101	103	107	98.3	61.8
LAMA-84 [23]	105	94.7	114	104	71.6
ML-2 [24]	91.7	98	106	102	101
MOLM-13 [25]	115	108	119	115	0.148
MV4-11 [26]	113	99.9	109	104	0.22
Mono-Mac-6 [27]	100	110	112	102	87.8
NOMO-1 [28]	98	96.2	98.1	94	95.2
SHI-1 [29]	95.9	98.7	97.3	98.8	2.85
THP-1 [30]	99.6	105	108	98.2	86.1
